We go through ten compounds from publication PMC11596972, “Synthesis and Antimicrobial Activity of 3-Alkylidene-2-Indolone Derivatives” (Molecules, 2024).

By MIC is commonly meant the lowest concentration found to suppress growth.

Values after ≈ are worked out from the molar mass of the structure shown. Where two headings read alike, the source gives them in different places. Where only a bound is given, the exact number is not on record here.

Assay [1] concerns S. aureus 4220. The assay is described as follows: MIC, double dilution method, S. aureus 4220. It is filed as cell-based. To be noted: Staphylococcus aureus, 4220, 24 h.
Assay [2] concerns S. aureus ATCC 6538. The assay is described as follows: MIC, double dilution method, S. aureus ATCC 6538. It is filed as cell-based. Particulars: Staphylococcus aureus, ATCC6538, 24 h.
Assay [3] deals with MRSA ATCC 43300. The assay is described as follows: MIC, double dilution method, MRSA ATCC 43300. It is filed as cell-based, Methicillin-resistant Staphylococcus aureus. Particulars: Staphylococcus aureus, 24 h, MRSA ATCC 43300, Gram-positive, 24 h culture.
The subject of assay [4] is P. aeruginosa CMCC 10211. Put plainly: MIC, double dilution method, P. aeruginosa CMCC 10211. To be noted: Pseudomonas aeruginosa. It is filed as cell-based.
Assay [5] has as its system E. coli ATCC 25922. The assay is described as follows: MIC, double dilution method, E. coli ATCC 25922. It is filed as cell-based. To be noted: Escherichia coli.
In assay [6] the test system is E. coli 1924. Put plainly: MIC, double dilution method, E. coli 1924. It is filed as cell-based, Escherichia coli.
Assay [7] deals with C. albicans CMCC 98001. Put plainly: MIC, double dilution method, C. albicans CMCC 98001. The format is cell-based, Candida albicans. Particulars: for MIC: Candida albicans, CMCC98001, 24 h, C. albicans CMCC 98001, fungus, 24 h culture.
Where [8] appears, read: S. aureus ATCC 6538, Gram-positive, 24 h culture, read-out: MIC.
[9] abbreviates: CMCC10211, P. aeruginosa CMCC 10211, Gram-negative, 24 h culture, read-out: MIC.
Setting [10] is: ATCC25922, E. coli ATCC 25922, Gram-negative, 24 h culture, read-out: MIC.
Where [11] appears, read: Escherichia coli, E. coli 1924, Gram-negative, 24 h culture, read-out: MIC.
The mark [12] stands for this setting: S. aureus 4220, Gram-positive, 24 h culture, read-out: MIC.

`CN1C(=O)/C(=C(\O)c2ccccc2)c2ccccc21` [Compound 10b, (Z)-3-(hydroxy(phenyl)methylene)-1-methylindolin-2-one]: the minimum inhibitory concentration (MIC) is 32 µg/mL (≈ 127 µM) in assay [1]; 8 µg/mL (≈ 31.8 µM) in assay [2]; 32 µg/mL (≈ 127 µM) in assay [3]; over 64 µg/mL in assay [4] (CMCC10211, 24 h); 64 µg/mL (≈ 255 µM) in assay [5] (ATCC25922, 24 h); 8 µg/mL (≈ 31.8 µM) in assay [6] (Escherichia coli, 1924, 24 h). This compound also had a minimal inhibitory concentration (MIC) in assay [7] of over 64 µg/mL.

As for `C/C(O)=C1/C(=O)N(C)c2ccc(C)cc21` [Compound 5d, (Z)-3-(1-hydroxyethylidene)-1,5-dimethylindolin-2-one], the MIC in assay [2] (setting [8]) was 64 µg/mL (≈ 315 µM); in assay [3] (read-out: MIC), over 64 µg/mL; in assay [4] (setting [9]), 64 µg/mL (≈ 315 µM); in assay [5] (setting [10]), over 64 µg/mL; in assay [6] (setting [11]) it was 2 µg/mL (≈ 9.84 µM). The “antifungal activity (class in words)” value in assay [7] (C. albicans CMCC 98001) was “moderate antifungal activity”.

For `CCN1C(=O)/C(=C(/C)O)c2ccccc21` [Compound 5t, (Z)-1-ethyl-3-(1-hydroxyethylidene) indolin-2-one], the MIC in assay [1] (setting [12]) was over 64 µg/mL; in assay [2] (setting [8]), 64 µg/mL (≈ 315 µM); in assay [3] (read-out: MIC), over 64 µg/mL; in assay [4] (setting [9]), over 64 µg/mL; in assay [5] (setting [10]), over 64 µg/mL; in assay [6] (setting [11]), 32 µg/mL (≈ 157 µM). For the same compound, in assay [7] (read-out: MIC), the MIC worked out at 32 µg/mL (≈ 157 µM).

Turning to `C/C(O)=C1/C(=O)N(C)c2ccc(Br)cc21` [Compound 5n, (Z)-5-bromo-3-(1-hydroxyethylidene)-1-methylindolin-2-one], the minimum inhibitory concentration (MIC) in assay [1] (setting [12]) is 32 µg/mL (≈ 119 µM); in assay [2] (setting [8]) it was 32 µg/mL (≈ 119 µM); in assay [3] (read-out: MIC) it was over 64 µg/mL; in assay [4] (setting [9]) it was over 64 µg/mL; in assay [5] (setting [10]), over 64 µg/mL; in assay [6] (setting [11]), 8 µg/mL (≈ 29.8 µM). Also, the minimum inhibitory concentration (MIC) in assay [7] (read-out: MIC) was found to be 64 µg/mL (≈ 239 µM).

Take `COc1ccc(CN2C(=O)/C(=C(/C)O)c3ccccc32)cc1` [Compound 5w, (Z)-3-(1-hydroxyethylidene)-1-(4-methoxybenzyl)indolin-2-one]: the minimum inhibitory concentration (MIC) in assay [1] (setting [12]) was over 64 µg/mL; in assay [2] (setting [8]), 64 µg/mL (≈ 217 µM); in assay [3] (read-out: MIC), 64 µg/mL (≈ 217 µM); in assay [4] (setting [9]), over 64 µg/mL; in assay [5] (setting [10]) it was over 64 µg/mL; in assay [6] (setting [11]), 8 µg/mL (≈ 27.1 µM). The minimum inhibitory concentration (MIC) in assay [7] (read-out: MIC) came to 32 µg/mL (≈ 108 µM).

Consider `C/C(O)=C1/C(=O)N(C)c2c(Cl)cccc21` [Compound 5i, (Z)-7-chloro-3-(1-hydroxyethylidene)-1-methylindolin-2-one], for which the MIC in assay [1] (setting [12]) is 32 µg/mL (≈ 143 µM); in assay [2] (setting [8]) it was 32 µg/mL (≈ 143 µM); in assay [3] (read-out: MIC) it was 64 µg/mL (≈ 286 µM); in assay [4] (setting [9]), 64 µg/mL (≈ 286 µM); in assay [5] (setting [10]), over 64 µg/mL; in assay [6] (setting [11]) it was 8 µg/mL (≈ 35.8 µM). Besides, the minimal inhibitory concentration (MIC) in assay [7] (read-out: MIC) was found to be 64 µg/mL (≈ 286 µM).

Take `C/C(O)=C1/C(=O)N(C)c2ccc(F)cc21` [Compound 5g, (Z)-5-fluoro-3-(1-hydroxyethylidene)-1-methylindolin-2-one]: the minimum inhibitory concentration (MIC) is over 64 µg/mL in assay [1] (setting [12]); 64 µg/mL (≈ 309 µM) in assay [2] (setting [8]); over 64 µg/mL in assay [3] (read-out: MIC); over 64 µg/mL in assay [4] (setting [9]); over 64 µg/mL in assay [5] (setting [10]); 64 µg/mL (≈ 309 µM) in assay [6] (setting [11]). Besides, the MIC in assay [7] (read-out: MIC) came out at 32 µg/mL (≈ 154 µM).

As for `C/C(O)=C1/C(=O)N(C)c2cc(Cl)ccc21` [Compound 5j, (Z)-6-chloro-3-(1-hydroxyethylidene)-1-methylindolin-2-one], the minimum inhibitory concentration (MIC) in assay [1] (setting [12]) is 32 µg/mL (≈ 143 µM); in assay [3] (read-out: MIC) it was over 64 µg/mL; in assay [4] (setting [9]), over 64 µg/mL; in assay [5] (setting [10]), over 64 µg/mL; in assay [6] (setting [11]), 8 µg/mL (≈ 35.8 µM); in assay [7] (read-out: MIC), 64 µg/mL (≈ 286 µM).

For the compound `C/C(O)=C1/C(=O)N(C)c2ccc(C#N)cc21` [Compound 5p, (Z)-3-(1-hydroxyethylidene)-1-methyl-2-oxoindoline-5-carbonitrile], the MIC in assay [1] (setting [12]) was 64 µg/mL (≈ 299 µM); in assay [2] (setting [8]), 64 µg/mL (≈ 299 µM); in assay [3] (read-out: MIC), over 64 µg/mL; in assay [4] (setting [9]) it was over 64 µg/mL; in assay [5] (setting [10]), over 64 µg/mL; in assay [6] (setting [11]), over 64 µg/mL. The minimum inhibitory concentration (MIC) in assay [7] (read-out: MIC) was over 64 µg/mL.

Regarding `C/C(O)=C1/C(=O)N(C)c2ccc(Cl)cc21` [Compound 5k, (Z)-5-chloro-3-(1-hydroxyethylidene)-1-methylindolin-2-one], the MIC in assay [2] (setting [8]) was 16 µg/mL (≈ 71.5 µM); in assay [3] (read-out: MIC) it was over 64 µg/mL; in assay [4] (setting [9]), over 64 µg/mL; in assay [5] (setting [10]), over 64 µg/mL; in assay [6] (setting [11]), 1 µg/mL (≈ 4.47 µM); in assay [7] (read-out: MIC), 32 µg/mL (≈ 143 µM).
